According to patent US20110294764A1, “2-METHYLENE-19,26-NOR-(20S)-1alpha-HYDROXYVITAMIN D3” (priority 2009, published 2011):
“And” between values parts separate entries of the source, which are not always exact repeats. Equal values may be shown once. “Also recorded” adds a separate entry of the source. Read-outs that look alike come from different tables or passages of the source.

Columns and labels:
Sprague-Dawley rats [1] = conditions: cited from earlier work; for Intestinal calcium transport (change from vehicle, serosal/mucosal ratio): as reported by Grzywacz et al. 2007
Sprague-Dawley rats [2] = assay: Bone calcium mobilization (serum calcium); type: in vivo, rat; conditions: for Bone calcium mobilization (change from vehicle, mg/dL): vehicle subtracted
Method: (§1) Male, weanling Sprague-Dawley rats were placed on Diet 11 (0.47% Ca) diet+AEK oil for one week followed by Diet 11 (0.02% Ca)+AEK oil for 3 weeks. The rats were then switched to a diet containing 0.47% Ca for one week followed by two weeks on a diet containing 0.02% Ca. Dose administration began during the last week on 0.02% calcium diet. Four consecutive intraperitoneal doses were given approximately 24 hours apart. Twenty-four hours after the last dose, blood was collected from the severed neck and the concentration of serum calcium determined as a measure of bone calcium mobilization. The first 10 cm of the intestine was also collected for intestinal calcium transport analysis using the everted gut sac method.

Sprague-Dawley rats [3] = conditions: cited from earlier work; for Bone calcium mobilization (change from vehicle, mg/dL): as reported by Grzywacz et al. 2007
Sprague-Dawley rats [4] = assay: Intestinal calcium transport (everted gut sac method); type: in vivo, rat; conditions: for Intestinal calcium transport (change from vehicle, serosal/mucosal ratio): vehicle subtracted
Method: as §1

HL-60 cells = assay: HL-60 differentiation (nitro blue tetrazolium reduction); type: cell-based, human; conditions: FIG. 2
Method: The study drugs were dissolved in ethanol and the concentrations determined using UV spectrophotometry. Serial dilutions were prepared so that a range of drug concentrations could be tested without changing the final concentration of ethanol ([…]) present in the cell cultures.
Human promyelocytic leukemia (HL60) cells were grown in RPMI-1640 medium containing 10% fetal bovine serum. The cells were incubated at 37° C. in the presence of 5% CO2.
HL60 cells were plated at 1.2×10^5 cells/ml. Eighteen hours after plating, cells in duplicate were treated with drug. Four days later, the cells were harvested and a nitro blue tetrazolium reduction assay was performed (Collins et al., 1979; J. Exp. Med. 149:969-974). The percentage of differentiated cells was determined by counting a total of 200 cells and recording the number that contained intracellular black-blue formazan deposits. Verification of differentiation to monocytic cells was determined by measuring phagocytic activity (data not shown).

[5] = system: 24-hydroxylase (24OHase) gene promoter; assay: In vitro transcription assay (24-hydroxylase promoter-luciferase in ROS 17/2.8 bone cells); type: cell-based; conditions: FIG. 3
Method: Transcription activity was measured in ROS 17/2.8 (bone) cells that were stably transfected with a 24-hydroxylase (24OHase) gene promoter upstream of a luciferase reporter gene (Arbour et al., 1998). Cells were given a range of doses. Sixteen hours after dosing the cells were harvested and luciferase activities were measured using a luminometer. RLU=relative luciferase units.

[6] = target: T1, recombinant vitamin D receptor (Rattus norvegicus, UniProt P13053); assay: Vitamin D receptor binding (competitive, 3H-1,25(OH)2D3)
T1 construct: Fun-length recombinant rat receptor was expressed in E. coli; histidine tag (C); made in house; host or cells: E. coli BL21(DE3) Codon Plus RIL
T1 sequence (P13053 1-423): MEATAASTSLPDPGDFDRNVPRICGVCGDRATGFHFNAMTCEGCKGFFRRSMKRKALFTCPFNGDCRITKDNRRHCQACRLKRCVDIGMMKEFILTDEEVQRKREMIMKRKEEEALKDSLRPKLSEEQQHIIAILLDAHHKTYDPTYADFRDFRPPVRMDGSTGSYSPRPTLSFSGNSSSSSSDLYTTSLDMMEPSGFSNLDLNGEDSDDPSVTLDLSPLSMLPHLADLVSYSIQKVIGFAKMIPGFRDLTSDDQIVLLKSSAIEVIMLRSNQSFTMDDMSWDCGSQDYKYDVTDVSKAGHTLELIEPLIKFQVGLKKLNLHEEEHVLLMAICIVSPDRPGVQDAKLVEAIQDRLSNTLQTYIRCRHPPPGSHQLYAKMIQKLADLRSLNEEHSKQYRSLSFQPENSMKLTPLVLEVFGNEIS
Method: Fun-length recombinant rat receptor was expressed in E. coli BL21(DE3) Codon Plus RIL cells and purified to homogeneity using two different column chromatography systems. The first system was a nickel affinity resin that utilizes the C-terminal histidine tag on this protein. The protein that was eluted from this resin was further purified using ion exchange chromatography (S-Sepharose Fast How). Aliquots of the purified protein were quick frozen in liquid nitrogen and stored at −80° C. until use. For use in binding assays, the protein was diluted in TEDK50 (50 mM […], 1.5 mM EDTA, pH 7.4, 5 mM DTT, 150 mM KCl) with 0.1% Chaps detergent. The receptor protein and ligand concentration was optimized such that no more than 20% of the added radiolabeled ligand was bound to the receptor.
Unlabeled ligands were dissolved in ethanol and the concentrations determined using UV spectrophotometry (1,25(OH)2D3: molar extinction coefficient=18,200 and λmax=265 nm; Analogs: molar extinction coefficient=42,000 and λmax=252 nm). Radiolabeled ligand (^3H-1,25(OH)2D3, ˜159 Ci/mmole) was added in ethanol at a final concentration of 1 nM.
Radiolabeled and unlabeled ligands were added to […] of the diluted protein at a final ethanol concentration of ≦10%, mixed and incubated overnight on ice to reach binding equilibrium. […] Total binding was determined from the tubes containing only radiolabeled ligand.

[7] = 260 pmol dose, data of Grzywacz et al. 2007

For `C=C1[C@H](O)CC(=C/C=C2\CCC[C@]3(C)[C@@H]([C@@H](C)CCCC(C)C)CC[C@@H]23)C[C@H]1O` [26Me, 2-methylene-19-nor-(20S)-1α-hydroxyvitamin D3], the “Intestinal calcium transport activity, in words” value (Sprague-Dawley rats [1]; [7]) is listed as “significant activity”, the “Intestinal calcium transport (change from vehicle, serosal/mucosal ratio)” value (Sprague-Dawley rats [1]; dose level 87 pmol) is listed as 6.6 serosal/mucosal ratio and the “Intestinal calcium transport (change from vehicle, serosal/mucosal ratio)” value (Sprague-Dawley rats [1]; dose level 260 pmol) is listed as 5.3 serosal/mucosal ratio. The “Intestinal calcium transport (change from vehicle, serosal/mucosal ratio)” value (Sprague-Dawley rats [1]; dose level 780 pmol) was 2.3 serosal/mucosal ratio, the “Intestinal calcium transport (change from vehicle, serosal/mucosal ratio)” value (Sprague-Dawley rats [1]; dose level 2340 pmol) was 5.4 serosal/mucosal ratio and the “Bone calcemic activity as multiple of that of 26N” value (Sprague-Dawley rats [2]; at 2340 pmol versus 26N at the higher dose of 7020 pmol) was roughly 10 times. For the same compound, the “Bone calcium mobilization activity, in words” value (Sprague-Dawley rats [3]; [7]) was “significant activity”, the “Bone calcium mobilization (change from vehicle, mg/dL)” value (Sprague-Dawley rats [3]; dose level 87 pmol) was 2.0 mg/dL and the “Bone calcium mobilization (change from vehicle, mg/dL)” value (Sprague-Dawley rats [3]; dose level 260 pmol) was 4.0 mg/dL. For the same compound, the “Bone calcium mobilization (change from vehicle, mg/dL)” value (Sprague-Dawley rats [3]; dose level 780 pmol) was 5.3 mg/dL and the “Bone calcium mobilization (change from vehicle, mg/dL)” value (Sprague-Dawley rats [3]; dose level 2340 pmol) was 5.6 mg/dL.
In the case of `C=C1[C@H](O)CC(=C/C=C2\CCC[C@@]3(C)C2CCC3[C@@H](C)CCCCC)C[C@H]1O` (stereo in doubt) [26N, 2-methylene-19,26-nor-(20S)-1α-hydroxyvitamin D3], the “Bone calcium mobilization (calcemic) activity, in words” value (Sprague-Dawley rats [2]; 260 pmol dose) is reported as “essentially no calcemic activity”, the “Bone calcium mobilization activity, in words” value (Sprague-Dawley rats [2]; 7020 pmol) is reported as “little bone calcium mobilization activity” and the “Times less active than 1,25-(OH)2D3 on bone calcium mobilization” value (Sprague-Dawley rats [2]; as shown at the dose of 7020 pmol, FIG. 4B) is reported as roughly 30 times. The “Calcemic activity (bone calcium mobilization), in words” value (Sprague-Dawley rats [2]; overall, FIGS. 4A, 4B) was “very low”, the “Times less potent than 1,25(OH)2D3 in releasing bone calcium stores” value (Sprague-Dawley rats [2]; rat, FIGS. 4A and 4B) was “approximately 30 times” and the “Bone calcium mobilization (change from vehicle, mg/dL)” value (Sprague-Dawley rats [2]; rat, dose level 260 pmol, four intraperitoneal doses) was -0.1 mg/dL. For the same compound, the “Bone calcium mobilization (change from vehicle, mg/dL)” value (Sprague-Dawley rats [2]; rat, dose level 7020 pmol) was 0.6 mg/dL and 0.8 mg/dL, the “Bone calcium mobilization (change from vehicle, mg/dL)” value (Sprague-Dawley rats [2]; rat, dose level 35100 pmol) was 4.0 mg/dL and the “Intestinal calcium transport (calcemic) activity, in words” value (Sprague-Dawley rats [4]; 260 pmol dose) was “essentially no calcemic activity”. The “Calcemic activity (intestinal calcium transport), in words” value (Sprague-Dawley rats [4]; overall, FIGS. 5A, 5B) was “very low; also recorded: noticeably less active than 1,25-(OH)2D3”, the “Times less potent than 1,25(OH)2D3 in promoting active calcium transport in the rat gut” value (Sprague-Dawley rats [4]; rat, FIGS. 5A and 5B) was “at least 10 times” and the “Intestinal calcium transport (change from vehicle, serosal/mucosal ratio)” value (Sprague-Dawley rats [4]; rat, dose level 260 pmol) was 0.1 serosal/mucosal ratio. The “Intestinal calcium transport (change from vehicle, serosal/mucosal ratio)” value (Sprague-Dawley rats [4]; rat, dose level 7020 pmol) was 8.7 serosal/mucosal ratio and 7.2 serosal/mucosal ratio, the “Intestinal calcium transport (change from vehicle, serosal/mucosal ratio)” value (Sprague-Dawley rats [4]; rat, dose level 35100 pmol) was 4.6 serosal/mucosal ratio and the “Potency in causing differentiation of HL-60 cells into monocytes compared with 1,25(OH)2D3 (in words)” value (HL-60 cells) was “same potency as 1,25(OH)2D3”. For the same compound, the “Potency in causing differentiation of HL-60 cells into monocytes compared with 1,25(OH)2D3 (in words)” value (HL-60 cells; listed as 2-Methylene-19,26-nor-(20S)-1α-hydroxyvitamin D3) was “same potency as 1,25-(OH)2D3”, the “Potency in increasing transcription of the 24-hydroxylase gene compared with 1,25(OH)2D3 (in words)” value ([5]; ROS 17/2.8 bone cells) was “about one log less potent than 1,25(OH)2D3” and the “Times less potent than 1,25-(OH)2D3 in stimulating 24-OHase gene expression” value ([5]; bone cells) was “about 10 times”. The “Binding to the nuclear vitamin D receptor compared with 1,25(OH)2D3 (in words)” value ([6]; FIG. 1) was “same affinity as 1,25(OH)2D3” and the “Binding to the nuclear vitamin D receptor compared with 1,25(OH)2D3 (in words)” value ([6]; FIG. 1, listed as 2-Methylene-19,26-nor-(20S)-1α-hydroxyvitamin D3) was “approximately equally effective as 1,25-(OH)2D3”.
